Source: PubChem BioAssay (NCI)
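GI50 is the concentration that inhibits growth by half. TGI: total growth inhibition.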

Legend:
Assay in all cases: NCI-60 cell line screen, 384-well format
UACC-257 melanoma = tested on: UACC-257 melanoma
A549 NSCLC = tested on: A549 NSCLC
SN12C renal = tested on: SN12C renal
MDA-MB-231 breast = tested on: MDA-MB-231 breast
SF-539 CNS = tested on: SF-539 CNS
NCI-H322M lung = tested on: NCI-H322M lung
OVCAR-3 ovarian = tested on: OVCAR-3 ovarian
SF-268 CNS = tested on: SF-268 CNS
SR leukemia = tested on: SR leukemia
COLO 205 colon = tested on: COLO 205 colon
SNB-19 CNS = tested on: SNB-19 CNS
OVCAR-5 ovarian = tested on: OVCAR-5 ovarian
HCT-15 colon = tested on: HCT-15 colon
OVCAR-8 ovarian = tested on: OVCAR-8 ovarian
M14 melanoma = tested on: M14 melanoma
NCI-H226 lung = tested on: NCI-H226 lung
NCI-H522 lung = tested on: NCI-H522 lung
SNB-75 CNS = tested on: SNB-75 CNS
NCI/ADR-RES ovarian = tested on: NCI/ADR-RES ovarian
HOP-92 NSCLC = tested on: HOP-92 NSCLC
LOX IMVI melanoma = tested on: LOX IMVI melanoma
TK-10 renal = tested on: TK-10 renal
PC-3 prostate = tested on: PC-3 prostate
MDA-MB-468 breast = tested on: MDA-MB-468 breast
HCT-116 colon = tested on: HCT-116 colon
CAKI-1 renal = tested on: CAKI-1 renal
IGROV1 ovarian = tested on: IGROV1 ovarian
HT29 colon = tested on: HT29 colon
SF-295 CNS = tested on: SF-295 CNS
T-47D breast = tested on: T-47D breast
KM12 colon = tested on: KM12 colon
A498 renal = tested on: A498 renal
RPMI-8226 leukemia = tested on: RPMI-8226 leukemia
RXF 393 renal = tested on: RXF 393 renal
HCC-2998 colon = tested on: HCC-2998 colon
HS 578T breast = tested on: HS 578T breast
BT-549 breast = tested on: BT-549 breast
MCF7 breast = tested on: MCF7 breast
SK-MEL-28 melanoma = tested on: SK-MEL-28 melanoma
U251 glioblastoma = tested on: U251 glioblastoma
SK-MEL-5 melanoma = tested on: SK-MEL-5 melanoma
HL-60(TB) leukemia = tested on: HL-60(TB) leukemia
OVCAR-4 ovarian = tested on: OVCAR-4 ovarian
SK-OV-3 ovarian = tested on: SK-OV-3 ovarian
DU-145 prostate = tested on: DU-145 prostate
MOLT-4 leukemia = tested on: MOLT-4 leukemia
MALME-3M melanoma = tested on: MALME-3M melanoma
NCI-H23 lung = tested on: NCI-H23 lung
EKVX NSCLC = tested on: EKVX NSCLC
HOP-62 NSCLC = tested on: HOP-62 NSCLC
NCI-H460 NSCLC = tested on: NCI-H460 NSCLC
ACHN renal = tested on: ACHN renal

Question: Which results are given for `CNCCn1c(=O)c2cc(OC)c(OC)cc2c2cnc3cc4c(cc3c21)OCO4`?
Answer: GI50 (UACC-257 melanoma): 22.8 nM; TGI (UACC-257 melanoma): 1310 nM; GI50 (A549 NSCLC): < 10 nM; TGI (A549 NSCLC): 1080 nM; GI50 (SN12C renal): < 10 nM; TGI (SN12C renal): < 10 nM; GI50 (MDA-MB-231 breast): 35.8 nM; TGI (MDA-MB-231 breast): 139 nM; GI50 (SF-539 CNS): < 10 nM; TGI (SF-539 CNS): 12.3 nM; GI50 (NCI-H322M lung): 15.6 nM; TGI (NCI-H322M lung): 41.1 nM; GI50 (OVCAR-3 ovarian): < 10 nM; TGI (OVCAR-3 ovarian): 14.1 nM; GI50 (SF-268 CNS): < 10 nM; TGI (SF-268 CNS): 17.2 nM; GI50 (SR leukemia): < 10 nM; TGI (SR leukemia): < 10 nM; GI50 (COLO 205 colon): < 10 nM; TGI (COLO 205 colon): 1330 nM; GI50 (SNB-19 CNS): < 10 nM; TGI (SNB-19 CNS): 14.1 nM; GI50 (OVCAR-5 ovarian): 10.6 nM; TGI (OVCAR-5 ovarian): 29.1 nM; GI50 (HCT-15 colon): < 10 nM; TGI (HCT-15 colon): 25.8 nM; GI50 (OVCAR-8 ovarian): < 10 nM; TGI (OVCAR-8 ovarian): 33.8 nM; GI50 (M14 melanoma): < 10 nM; TGI (M14 melanoma): < 10 nM; GI50 (NCI-H226 lung): 12.7 nM; TGI (NCI-H226 lung): 756 nM; GI50 (NCI-H522 lung): < 10 nM; TGI (NCI-H522 lung): 23.3 nM; GI50 (SNB-75 CNS): < 10 nM; TGI (SNB-75 CNS): 23.3 nM; GI50 (NCI/ADR-RES ovarian): < 10 nM; TGI (NCI/ADR-RES ovarian): 42.9 nM; GI50 (HOP-92 NSCLC): 14.1 nM; TGI (HOP-92 NSCLC): 1330 nM; GI50 (LOX IMVI melanoma): < 10 nM; TGI (LOX IMVI melanoma): 12 nM; GI50 (TK-10 renal): 13.8 nM; TGI (TK-10 renal): 58.4 nM; GI50 (PC-3 prostate): 22.1 nM; TGI (PC-3 prostate): 1340 nM; GI50 (MDA-MB-468 breast): < 10 nM; TGI (MDA-MB-468 breast): < 10 nM; GI50 (HCT-116 colon): < 10 nM; TGI (HCT-116 colon): 19.2 nM; GI50 (CAKI-1 renal): < 10 nM; TGI (CAKI-1 renal): 1490 nM; GI50 (IGROV1 ovarian): 15.8 nM; TGI (IGROV1 ovarian): 66.7 nM; GI50 (HT29 colon): < 10 nM; TGI (HT29 colon): 20.5 nM; GI50 (SF-295 CNS): < 10 nM; TGI (SF-295 CNS): < 10 nM; GI50 (T-47D breast): < 10 nM; TGI (T-47D breast): 242 nM; GI50 (KM12 colon): 10.8 nM; TGI (KM12 colon): 43.2 nM; GI50 (A498 renal): < 10 nM; TGI (A498 renal): 20.9 nM; GI50 (RPMI-8226 leukemia): < 10 nM; TGI (RPMI-8226 leukemia): < 10 nM; GI50 (RXF 393 renal): 13.7 nM; TGI (RXF 393 renal): 43.1 nM; GI50 (HCC-2998 colon): 12.4 nM; TGI (HCC-2998 colon): 32.4 nM; GI50 (HS 578T breast): 33.5 nM; TGI (HS 578T breast): 1810 nM; GI50 (BT-549 breast): < 10 nM; TGI (BT-549 breast): 20.4 nM; GI50 (MCF7 breast): < 10 nM; TGI (MCF7 breast): 158 nM; GI50 (SK-MEL-28 melanoma): 28.8 nM; TGI (SK-MEL-28 melanoma): 1830 nM; GI50 (U251 glioblastoma): < 10 nM; TGI (U251 glioblastoma): 12.3 nM; GI50 (SK-MEL-5 melanoma): < 10 nM; TGI (SK-MEL-5 melanoma): 14.8 nM; GI50 (HL-60(TB) leukemia): < 10 nM; TGI (HL-60(TB) leukemia): < 10 nM; GI50 (OVCAR-4 ovarian): 21.7 nM; TGI (OVCAR-4 ovarian): 42 nM; GI50 (SK-OV-3 ovarian): < 10 nM; TGI (SK-OV-3 ovarian): 17.7 nM; GI50 (DU-145 prostate): < 10 nM; TGI (DU-145 prostate): < 10 nM; GI50 (MOLT-4 leukemia): < 10 nM; TGI (MOLT-4 leukemia): < 10 nM; GI50 (MALME-3M melanoma): 25.5 nM; TGI (MALME-3M melanoma): 1810 nM; GI50 (NCI-H23 lung): < 10 nM; TGI (NCI-H23 lung): 16.2 nM; GI50 (EKVX NSCLC): 21.9 nM; TGI (EKVX NSCLC): 51.6 nM; GI50 (HOP-62 NSCLC): < 10 nM; TGI (HOP-62 NSCLC): < 10 nM; GI50 (NCI-H460 NSCLC): < 10 nM; TGI (NCI-H460 NSCLC): < 10 nM; GI50 (ACHN renal): < 10 nM; TGI (ACHN renal): < 10 nM
